{
  "source": "patent US20220073471A1",
  "about": "(JIANGSU HENGRUI MEDICINE CO., LTD., priority 2019, published 2022)",
  "data": [
    {"molecular_target": "T1, Nav1.8 ion channel stably expressed on HEK293 cells (Homo sapiens, UniProt Q9Y5Y9)", "T1 construct": "expressed in transfected cells; host or cells: HEK293", "T1 sequence (Q9Y5Y9 whole entry)": "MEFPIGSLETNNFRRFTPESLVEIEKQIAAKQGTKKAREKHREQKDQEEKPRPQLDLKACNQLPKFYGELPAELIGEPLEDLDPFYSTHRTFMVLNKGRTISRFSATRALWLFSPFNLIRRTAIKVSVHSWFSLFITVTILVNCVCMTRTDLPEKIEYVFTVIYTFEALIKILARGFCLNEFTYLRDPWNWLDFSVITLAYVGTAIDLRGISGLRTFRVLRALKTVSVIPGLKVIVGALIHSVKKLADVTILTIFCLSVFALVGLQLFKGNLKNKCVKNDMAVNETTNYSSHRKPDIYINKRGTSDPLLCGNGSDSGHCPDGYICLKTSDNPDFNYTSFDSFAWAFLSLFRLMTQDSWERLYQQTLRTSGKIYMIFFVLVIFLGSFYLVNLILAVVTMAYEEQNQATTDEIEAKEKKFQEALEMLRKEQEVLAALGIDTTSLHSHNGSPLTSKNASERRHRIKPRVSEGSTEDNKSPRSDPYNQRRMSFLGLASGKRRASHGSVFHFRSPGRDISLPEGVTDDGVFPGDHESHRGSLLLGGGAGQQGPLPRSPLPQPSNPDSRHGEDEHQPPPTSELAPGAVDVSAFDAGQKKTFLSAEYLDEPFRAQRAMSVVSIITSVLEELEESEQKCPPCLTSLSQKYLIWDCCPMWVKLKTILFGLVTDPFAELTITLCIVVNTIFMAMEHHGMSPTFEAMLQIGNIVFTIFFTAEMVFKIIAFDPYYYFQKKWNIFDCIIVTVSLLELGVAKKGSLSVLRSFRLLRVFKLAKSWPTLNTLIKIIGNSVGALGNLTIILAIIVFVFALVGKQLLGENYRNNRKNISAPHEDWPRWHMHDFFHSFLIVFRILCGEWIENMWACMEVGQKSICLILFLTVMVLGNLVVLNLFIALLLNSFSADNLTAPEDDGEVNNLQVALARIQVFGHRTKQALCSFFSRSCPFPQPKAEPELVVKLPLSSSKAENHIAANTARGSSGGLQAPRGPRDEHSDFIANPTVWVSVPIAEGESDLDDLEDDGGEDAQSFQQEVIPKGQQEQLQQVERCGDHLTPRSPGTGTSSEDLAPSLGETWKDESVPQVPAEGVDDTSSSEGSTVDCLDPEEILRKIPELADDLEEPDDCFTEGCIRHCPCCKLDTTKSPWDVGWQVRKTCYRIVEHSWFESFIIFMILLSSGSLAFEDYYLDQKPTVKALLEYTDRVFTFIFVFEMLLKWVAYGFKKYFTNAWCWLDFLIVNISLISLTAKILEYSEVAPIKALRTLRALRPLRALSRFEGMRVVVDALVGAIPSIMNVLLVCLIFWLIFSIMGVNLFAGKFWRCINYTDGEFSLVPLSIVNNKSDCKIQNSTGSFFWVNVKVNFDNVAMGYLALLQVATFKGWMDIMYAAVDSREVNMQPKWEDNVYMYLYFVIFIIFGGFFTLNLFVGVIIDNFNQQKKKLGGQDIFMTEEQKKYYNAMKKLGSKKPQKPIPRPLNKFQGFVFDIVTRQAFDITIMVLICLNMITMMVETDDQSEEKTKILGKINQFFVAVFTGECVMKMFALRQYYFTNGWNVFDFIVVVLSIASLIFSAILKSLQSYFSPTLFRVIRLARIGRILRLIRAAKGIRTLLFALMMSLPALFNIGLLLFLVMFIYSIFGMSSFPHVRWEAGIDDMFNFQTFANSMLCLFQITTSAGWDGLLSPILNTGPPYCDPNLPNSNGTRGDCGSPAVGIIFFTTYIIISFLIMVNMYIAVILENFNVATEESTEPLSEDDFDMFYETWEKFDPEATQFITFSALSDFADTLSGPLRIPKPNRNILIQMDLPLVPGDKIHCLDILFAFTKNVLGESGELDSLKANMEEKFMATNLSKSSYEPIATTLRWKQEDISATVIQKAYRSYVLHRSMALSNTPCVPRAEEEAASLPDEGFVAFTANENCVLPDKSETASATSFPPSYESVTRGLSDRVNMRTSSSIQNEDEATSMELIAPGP", "experiment": "Inhibitory activity on Nav1.8, manual patch clamp", "type": "cell-based", "conditions": "resting, clamped at -80 mV, 1 μM TTX, read-out: IC50 on inhibiting the Nav1.8 channel activity", "excerpt": "The purpose of the experiment is to investigate the effect of the compounds on Nav1.8 ion channel in an in vitro experiment, wherein the Nav1.8 ion channel is stably expressed on HEK293 cells. After the Nav1.8 current becomes stable, the Nav1.8 currents before and after the administration of the compound are compared so as to obtain the effect of the compound on the Nav1.8 ion channel.\nExcept for NaOH and KOH used for acid titration and base titration, all the compounds used for formulating the extracellular fluid and intracellular fluid were purchased from Sigma (St. Louis, Mo.). Extracellular fluid (mM): NaCl, 137; KCl, 4; CaCl2), 1.8; MgCl2, 1; HEPES, 10; glucose, 10; pH 7.4 (NaOH titration). Intracellular fluid (mM): aspartic acid, 140; MgCl2, 2; EGTA, 11; HEPES, 10; pH 7.2 (CsOH titration). All solutions of test compound and control compound contained 1 μM TTX.\nThe test compound was dissolved in dimethyl sulfoxide (DMSO) at a stock concentration of 9 mM. The stock solution of the test compound was dissolved in the extracellular fluid on the day of the test and formulated into the required concentration.\n1) The compound was formulated into solutions with specified concentrations, the solutions were added to the pipelines respectively in order from low to high concentration, and the pipelines were marked.\n2) The cell was transferred to the perfusion tank. A positive pressure was applied to the electrode. The tip of the electrode touched the cell. The three-way valve of the air extracting device was adjusted to a three-way state. A negative pressure was applied to the electrode, so that a high-resistance seal was formed between the electrode and the cell.\nThe negative pressure was applied continuously, thereby causing the cell membrane to rupture and forming a current path.\n3) After the current for rupturing the cell membrane became stable, perfusion of different concentrations was carried out in sequence. Once the current was stable for at least one minute, perfusion of the next concentration was carried out.\n4) The perfusion tank was cleaned. The perfusion tank was rinsed with the drug solutions in order from high to low concentration, and the rinse duration for each concentration of drug solution was 20 seconds. The perfusion tank was finally rinsed with the extracellular fluid for 1 minute.\nThe cell was clamped at −80 mV. The cell was depolarized to 10 mV with a square wave lasting 10 milliseconds to obtain the Nav1.8 current. This procedure was repeated every 5 seconds. The maximum current caused by the square wave was measured. After the current became stable, the test compound was perfused. After the response became stable, the blocking intensity was calculated.\nThe data was stored in the computer system for analysis. Data collection and analysis were carried out by pCLAMP 10 (Molecular Devices, Union City, Calif.), and the analysis results were reviewed by the administrator. Stable current means that the current changes within a limited range over time. The magnitude of stable current was used to calculate the effect of the compound at the concentration.", "units": {"IC50": "nM"}, "values": [
      {"compound": "O=C(Nc1cn[nH]c(=O)c1)c1cc(Cl)c(C(F)(F)F)cc1Oc1ccc(F)cc1F", "note": "[Example 46, 5-Chloro-2-(2,4-difluorophenoxy)-N-(6-oxo-1,6-dihydropyridazin-4-yl)-4-(trifluoromethyl)benzamide]", "IC50": 8.95},
      {"compound": "Cc1cc(F)ccc1Oc1cc(C(F)(F)C(F)(F)F)ccc1C(=O)Nc1cn[nH]c(=O)c1", "note": "[Example 5, 2-(4-Fluoro-2-methylphenoxy)-N-(6-oxo-1,6-dihydropyridazin-4-yl)-4-(perfluoroethyl)benzamide]", "IC50": 23.7},
      {"compound": "COc1cc(F)ccc1Oc1cc(Cl)ccc1C(=O)Nc1cn[nH]c(=O)c1", "note": "[Example 21, 4-Chloro-2-(4-fluoro-2-methoxyphenoxy)-N-(6-oxo-1,6-dihydropyridazin-4-yl)benzamide]", "IC50": 59.4},
      {"compound": "O=C(Nc1cn[nH]c(=O)c1)c1cc(Cl)c(C(F)(F)F)cc1Oc1ccc(F)cc1Cl", "note": "[Example 45, 5-Chloro-2-(2-chloro-4-fluorophenoxy)-N-(6-oxo-1,6-dihydropyridazin-4-yl)-4-(trifluoromethyl)benzamide]", "IC50": 5.08},
      {"compound": "O=C(Nc1cn[nH]c(=O)c1)c1cc(Cl)c(C(F)(F)F)cc1Oc1ccc(F)cc1OC1CCC1", "note": "[Example 41, 5-Chloro-2-(2-cyclobutoxy-4-fluorophenoxy)-N-(6-oxo-1,6-dihydropyridazin-4-yl)-4-(trifluoromethyl)benzamide]", "IC50": 1.86},
      {"compound": "COc1cc(F)ccc1Oc1cc(Cl)c(F)cc1C(=O)Nc1cn[nH]c(=O)c1", "note": "[Example 18, 4-Chloro-5-fluoro-2-(4-fluoro-2-methoxyphenoxy)-N-(6-oxo-1,6-dihydropyridazin-4-yl)benzamide]", "IC50": 22.2},
      {"compound": "CC(C)Oc1cc(F)ccc1Oc1cc(C(F)(F)F)c(Cl)cc1C(=O)Nc1cn[nH]c(=O)c1", "note": "[Example 42]", "IC50": 2.98},
      {"compound": "O=C(Nc1cn[nH]c(=O)c1)c1cc(Cl)c(C(F)(F)F)cc1Oc1ccc(F)cc1OC(F)F", "note": "[Example 37, 5-Chloro-2-(2-(difluoromethoxy)-4-fluorophenoxy)-N-(6-oxo-1,6-dihydropyridazin-4-yl)-4-(trifluoromethyl)benzamide]", "IC50": 2.38},
      {"compound": "Cc1cc(F)ccc1Oc1ccc(Cl)cc1C(=O)Nc1cn[nH]c(=O)c1", "note": "[Example 23, 5-Chloro-2-(4-fluoro-2-methylphenoxy)-N-(6-oxo-1,6-dihydropyridazin-4-yl)benzamide]", "IC50": 92.3},
      {"compound": "Cc1cc(F)ccc1Oc1cc(Cl)ccc1C(=O)Nc1cn[nH]c(=O)c1", "note": "[Example 20, 4-Chloro-2-(4-fluoro-2-methylphenoxy)-N-(6-oxo-1,6-dihydropyridazin-4-yl)benzamide]", "IC50": 58.5},
      {"compound": "COc1cc(F)ccc1Sc1cc(C(F)(F)F)c(Cl)cc1C(=O)Nc1cn[nH]c(=O)c1", "note": "[Example 17, 5-Chloro-2-((4-fluoro-2-methoxyphenyl)thio)-N-(6-oxo-1,6-dihydropyridazin-4-yl)-4-(trifluoromethyl)benzamide]", "IC50": 18},
      {"compound": "CCOc1cc(F)ccc1Oc1cc(C(F)(F)F)c(Cl)cc1C(=O)Nc1cn[nH]c(=O)c1", "note": "[Example 32, 5-Chloro-2-(2-ethoxy-4-fluorophenoxy)-N-(6-oxo-1,6-dihydropyridazin-4-yl)-4-(trifluoromethyl)benzamide]", "IC50": 0.37},
      {"compound": "Cc1cc(F)ccc1Oc1cc(C(F)(F)F)cc(C(F)(F)F)c1C(=O)Nc1cn[nH]c(=O)c1", "note": "[Example 29, 2-(4-Fluoro-2-methylphenoxy)-N-(6-oxo-1,6-dihydropyridazin-4-yl)-4,6-bis(trifluoromethyl)benzamide]", "IC50": 90.4},
      {"compound": "Cc1cc(F)ccc1Oc1cc(Cl)c(C(F)(F)F)cc1C(=O)Nc1cn[nH]c(=O)c1", "note": "[Example 27, 4-Chloro-2-(4-fluoro-2-methylphenoxy)-N-(6-oxo-1,6-dihydropyridazin-4-yl)-5-(trifluoromethyl)benzamide]", "IC50": 5.7},
      {"compound": "O=C(Nc1cn[nH]c(=O)c1)c1cc(Cl)c(C(F)(F)F)cc1Oc1ccc(OC(F)(F)F)cc1F", "note": "[Example 14, 5-Chloro-2-(2-fluoro-4-(trifluoromethoxy)phenoxy)-N-(6-oxo-1,6-dihydropyridazin-4-yl)-4-(trifluoromethyl)benzamide]", "IC50": 2.5},
      {"compound": "O=C(Nc1cn[nH]c(=O)c1)c1cc(Cl)c(Cl)cc1Oc1ccc(F)cc1", "note": "[Example 4, 4,5-Dichloro-2-(4-fluorophenoxy)-N-(6-oxo-1,6-dihydropyridazin-4-yl)benzamide]", "IC50": 14.1},
      {"compound": "Cc1cc(F)ccc1Oc1cc(Cl)c(F)cc1C(=O)Nc1cn[nH]c(=O)c1", "note": "[Example 19, 4-Chloro-5-fluoro-2-(4-fluoro-2-methylphenoxy)-N-(6-oxo-1,6-dihydropyridazin-4-yl)benzamide]", "IC50": 31.7},
      {"compound": "Cc1cc(F)ccc1Cc1cc(C(F)(F)F)c(Cl)cc1C(=O)Nc1cn[nH]c(=O)c1", "note": "[Example 13, 5-Chloro-2-(4-fluoro-2-methylbenzyl)-N-(6-oxo-1,6-dihydropyridazin-4-yl)-4-(trifluoromethyl)benzamide]", "IC50": 2.3},
      {"compound": "O=C(Nc1cn[nH]c(=O)c1)c1cc(Cl)c(C(F)(F)F)cc1Oc1ccc(F)cc1Br", "note": "[Example 43, 2-(2-Bromo-4-fluorophenoxy)-5-chloro-N-(6-oxo-1,6-dihydropyridazin-4-yl)-4-(trifluoromethyl)benzamide]", "IC50": 3.36},
      {"compound": "COc1cc(F)ccc1Oc1ccc(C(F)(F)F)cc1C(=O)Nc1cn[nH]c(=O)c1", "note": "[Example 16, 2-(4-Fluoro-2-methoxyphenoxy)-N-(6-oxo-1,6-dihydropyridazin-4-yl)-5-(trifluoromethyl)benzamide]", "IC50": 17.9},
      {"compound": "Cc1cc(F)ccc1Oc1cc(C(F)(F)F)ccc1C(=O)Nc1cn[nH]c(=O)c1", "note": "[Example 9, 2-(4-Fluoro-2-methylphenoxy)-N-(6-oxo-1,6-dihydropyridazin-4-yl)-4-(trifluoromethyl)benzamide]", "IC50": 83.4},
      {"compound": "Cc1cc(OC(F)(F)F)ccc1Oc1cc(C(F)(F)F)ccc1C(=O)Nc1cn[nH]c(=O)c1", "note": "[Example 6, 2-(2-Methyl-4-(trifluoromethoxy)phenoxy)-N-(6-oxo-1,6-dihydropyridazin-4-yl)-4-(trifluoromethyl)benzamide]", "IC50": 24.4},
      {"compound": "[2H]C([2H])([2H])c1cc(F)ccc1Oc1cc(C(F)(F)F)c(Cl)cc1C(=O)Nc1cn[nH]c(=O)c1", "note": "[Example 44, 5-Chloro-2-(4-fluoro-2-(methyl-d3)phenoxy)-N-(6-oxo-1,6-dihydropyridazin-4-yl)-4-(trifluoromethyl)benzamide]", "IC50": 4.04},
      {"compound": "Cc1cc(Oc2ccc(F)cc2C)c(C(=O)Nc2cn[nH]c(=O)c2)cc1Cl", "note": "[Example 28, 5-Chloro-2-(4-fluoro-2-methylphenoxy)-4-methyl-N-(6-oxo-1,6-dihydropyridazin-4-yl)benzamide]", "IC50": 5.2},
      {"compound": "COc1cc(F)ccc1Oc1cc(C(F)(F)F)ccc1C(=O)Nc1cn[nH]c(=O)c1", "note": "[Example 8, 2-(4-Fluoro-2-methoxyphenoxy)-N-(6-oxo-1,6-dihydropyridazin-4-yl)-4-(trifluoromethyl)benzamide]", "IC50": 45.8},
      {"compound": "COc1cc(F)ccc1Oc1cc(Cl)c(Cl)cc1C(=O)Nc1cn[nH]c(=O)c1", "note": "[Example 1, 4,5-Dichloro-2-(4-fluoro-2-methoxyphenoxy)-N-(6-oxo-1,6-dihydropyridazin-4-yl)benzamide]", "IC50": 1.6},
      {"compound": "CCc1cc(F)ccc1Oc1cc(C(F)(F)F)c(Cl)cc1C(=O)Nc1cn[nH]c(=O)c1", "note": "[Example 36, 5-Chloro-2-(2-ethyl-4-fluorophenoxy)-N-(6-oxo-1,6-dihydropyridazin-4-yl)-4-(trifluoromethyl)benzamide]", "IC50": 1.54},
      {"compound": "O=C(Nc1cn[nH]c(=O)c1)c1cc(Cl)c(C(F)(F)F)cc1Oc1ccc(F)c2c1CCC2", "note": "[Example 39, 5-Chloro-2-((7-fluoro-2,3-dihydro-1H-inden-4-yl)oxy)-N-(6-oxo-1,6-dihydropyridazin-4-yl)-4-(trifluoromethyl)benzamide]", "IC50": 0.24},
      {"compound": "O=C(Nc1cn[nH]c(=O)c1)c1cc(Cl)c(C(F)(F)F)cc1Oc1ccc(F)cc1OC1CCCC1", "note": "[Example 40, 5-Chloro-2-(2-(cyclopentyloxy)-4-fluorophenoxy)-N-(6-oxo-1,6-dihydropyridazin-4-yl)-4-(trifluoromethyl)benzamide]", "IC50": 0.32},
      {"compound": "Cc1cc(F)ccc1Oc1cc(Cl)c(Cl)cc1C(=O)Nc1cn[nH]c(=O)c1", "note": "[Example 3, 4,5-Dichloro-2-(4-fluoro-2-methylphenoxy)-N-(6-oxo-1,6-dihydropyridazin-4-yl)benzamide]", "IC50": 3.3}
    ]}
  ]
}
